Results from PubChem BioAssay AID1996.
In brackets after ≈: the same amount, converted by molar mass.

conditions: buffer; pH 7.4; 200.0 µM

| Compound | solubility kinetic |
| --- | --- |
| CNC(=O)CSc1nc2ccccc2c(=O)n1C1CCCCC1 | > 49.7 µg/mL |
| CN(C)c1ccc(C=C2C(=O)NC(=O)NC2=O)cc1[N+](=O)[O-] | > 45.6 µg/mL |
| CC1=CCC(C(=O)O)C(C(=O)Nc2ccc(-c3nc4ccc(C)cc4s3)cc2)C1 (stereo not given) | > 61 µg/mL |
| O=C(c1cc2cc(C(F)(F)F)ccc2s1)N1CCOCC1 | > 47.3 µg/mL |
| COc1ccc(/C=C/C(=O)OCC(=O)NC2CCCC2)cc1OC | 48.6 µg/mL (≈ 146 µM) |
| Clc1ccccc1-c1nc(-c2ccc(Br)o2)no1 | < 0.3 µg/mL |
| C=CC[n+]1cccc(-c2cc3ccc(C)cc3[nH]2)c1.[Br-] | > 49.4 µg/mL |
| CC1CCCCN1S(=O)(=O)c1csc(C(N)=O)c1 (stereo not given) | > 43.3 µg/mL |
| Cc1ccc(S(=O)(=O)NCCC(=O)Nc2cccc(S(=O)(=O)N3CCCC3)c2)cc1C | 30.5 µg/mL (≈ 65.5 µM) |
| Cc1ccc2nc(-c3ccsc3)c(NC3CCCC3)n2c1 | 1.6 µg/mL (≈ 5.38 µM) |
| O=CN1CCN(C(=O)c2cccc3c2-c2ccccc2C3=O)CC1 | > 48.1 µg/mL |
| NS(=O)(=O)c1cccc(NC(=O)c2ccc(S(=O)(=O)N3CCCCCC3)cc2)c1 | 7.1 µg/mL (≈ 16.2 µM) |
| O=C(O)CC(NC(=O)C1CCCCC1)c1ccc(OC2CCCC2)cc1 (stereo not given) | 53.4 µg/mL (≈ 149 µM) |
| CCOP(=O)(CN(CC)C(=O)c1ccccc1Br)OCC | > 56.7 µg/mL |
| COc1ccc(OC(C)C(=O)NCC2CCCO2)cc1 (stereo not given) | > 41.9 µg/mL |
| O=C(NCCCCc1ccccc1)C1CCCC1 | 33.1 µg/mL (≈ 135 µM) |
| N#Cc1c(N2CCOCC2)nsc1-c1ccc(C(F)(F)F)cc1 | < 0.2 µg/mL |
| Cc1ccc(N(Cc2ccccc2)C(=O)c2ccc(F)cc2)cc1 | 9.1 µg/mL (≈ 28.5 µM) |
| COc1ccc(Cl)cc1NC(=O)/C=C/C(=O)O | > 38.3 µg/mL |
| Cc1[nH]n2cnnc2c(=O)c1Br.O=S(=O)(O)O | > 49.1 µg/mL |

| Compound | solubility kinetic |
| --- | --- |
| Cc1ccc2[nH]c3c(c2c1)CN(C(=O)CN1CCCCC1)CC3 | 41.8 µg/mL (≈ 134 µM) |
| O=C1CC(c2ccccc2)CC(O)=C1C=NCCc1ccccc1 (stereo not given) | 2.1 µg/mL (≈ 6.57 µM) |
| COC(=O)c1ccc(C2NC(=O)CCC2[N+](=O)[O-])cc1 (stereo not given) | > 41.7 µg/mL |
| O=S(=O)(c1ccc2c(c1)CCCN2)N1CCCCC1 | > 42.1 µg/mL |
| O=C(NC1CCCCCCC1)c1cccc(Cl)c1 | 0.9 µg/mL (≈ 3.39 µM) |
| O=C(CCNC(=O)c1ccc([N+](=O)[O-])cc1)Nc1ccc(F)cc1 | 21.8 µg/mL (≈ 65.8 µM) |
| O=C(NCc1ccccc1)c1c(O)c2ccccc2[nH]c1=O | < 0.3 µg/mL |
| O=C(Nc1cc([N+](=O)[O-])ccc1F)C1CCN(S(=O)(=O)c2cccs2)CC1 | 4.4 µg/mL (≈ 10.6 µM) |
| O=C(COC(=O)c1cc([N+](=O)[O-])ccc1NCCO)Nc1cccnc1Cl | 9.1 µg/mL (≈ 23.1 µM) |
| COCCNS(=O)(=O)c1cc(OC)c(C)cc1C | > 41 µg/mL |
| O=C(CNC(=O)c1ccco1)NCc1ccc2c(c1)OCO2 | 34.6 µg/mL (≈ 114 µM) |
| O=C(Nc1ccccc1)N(C1=NCCC1)c1ccccc1 | 5.4 µg/mL (≈ 19.3 µM) |
| O=C(c1c(F)cccc1F)N1CCN=C1SCc1ccccc1 | 18.5 µg/mL (≈ 55.7 µM) |
| CSc1ncc(Cl)c(C(=O)NCc2cccnc2)n1 | > 44.2 µg/mL |
| CCOc1ccc2nc(NC(=O)c3ccc(C)o3)sc2c1 | 0.6 µg/mL (≈ 1.98 µM) |
| CC1(/[N+]([O-])=C\c2ccccc2F)CCCCC1=O (stereo not given) | > 37.4 µg/mL |
| CCCCCC(=O)NC(CC(=O)OC)c1ccc2c(c1)OCO2 (stereo not given) | > 48.2 µg/mL |
| COc1ccccc1CN(C)C(=O)c1cnc(C)cn1 | > 40.7 µg/mL |
| CN(C)C(=O)COc1ccc(Oc2ccccc2)cc1 | 25.7 µg/mL (≈ 94.7 µM) |
| CCC(C)(NC(=O)c1ccc2c(c1)OCO2)C(=O)NC1CCCCC1 (stereo not given) | > 52 µg/mL |

| Compound | solubility kinetic |
| --- | --- |
| COC(=O)C(=CC(=CN(C)C)C=C(C(=O)OC)C(=O)OC)C(=O)OC | > 53.3 µg/mL |
| COc1ccc(CNC(C)Cc2cccs2)cc1 (stereo not given) | 30.4 µg/mL (≈ 116 µM) |
| O=C(N[C@H]1CC1c1ccccc1)c1ccc([N+](=O)[O-])cc1 (stereo not given in full) | 1.6 µg/mL (≈ 5.67 µM) |
| O=CNCCc1nc2ccccc2n1CCc1ccccc1 | 41 µg/mL (≈ 140 µM) |
| CCOC(=O)C(O)C1CCc2c([nH]c3ccc(C)cc23)C1=O (stereo not given) | 22.6 µg/mL (≈ 75 µM) |
| COc1ccc([N+](=O)[O-])cc1NC(=S)NC(C)=O | 2 µg/mL (≈ 7.43 µM) |
| Cc1ccc(N2CC(C(=O)NCCN3CCOCC3)CC2=O)cc1 (stereo not given) | > 49.7 µg/mL |
| C=CCNC(=S)Nc1cccc(N)c1 | > 31.1 µg/mL |
| CCCOC(=O)Cn1cnc2scc(-c3ccc(OC)cc3)c2c1=O | 27.7 µg/mL (≈ 77.3 µM) |
| COc1ccccc1N1C(=S)NC2CS(=O)(=O)CC21 (stereo not given) | > 44.8 µg/mL |
| COc1ccc(C(C)NC(=O)C2CCCC2)cc1OC (stereo not given) | > 41.6 µg/mL |
| Cc1cccc2cc(CNCc3ccccc3)c(Cl)nc12 | 3.8 µg/mL (≈ 12.8 µM) |
| COc1ccc2[nH]c(C(=O)NCCN3CCOCC3)cc2c1 | 31.6 µg/mL (≈ 104 µM) |
| CC1CC(=O)C2=C(C1)Nc1nc3ccccc3n1C2c1cccnc1 (stereo not given) | 3.3 µg/mL (≈ 9.99 µM) |
| CCCOc1ccc2ccccc2c1/C=C1\SC(=O)NC1=O | > 47 µg/mL |
| O=c1cc(Cl)c2ccccc2n1-c1ccccc1 | > 38.4 µg/mL |
| COc1ccc(S(=O)(=O)N2c3ccc(F)cc3CCC2C)cc1 (stereo not given) | 3.2 µg/mL (≈ 9.54 µM) |
| CCOC(=O)c1sc(/N=C/c2c(O)ccc3ccccc23)cc1C | 9.8 µg/mL (≈ 28.9 µM) |
| CCOc1ccc(C(=O)NNC(=O)CN2C(=O)C3CC=CCC3C2=O)cc1OC (stereo not given) | > 60.2 µg/mL |
| CC(=O)Nc1ccc2nc(NC(=O)c3cccs3)sc2c1 | 3.6 µg/mL (≈ 11.3 µM) |
